Assay results from patent US7357991B2, “Soluble compound and organic electroluminescent devices” (Idemitsu Kosan Co., Ltd., priority 2001, dated 2008).

Test: Solubility in organic solvents
Format: physicochemical
Settings: in each of toluene, xylene, N-methylpyrrolidone, γ-butyrolactone, 1,3-dimethyl-2-imidazoline, carbitol acetate, butylcarbitol acetate, dichloromethane, dichloroethane, chlorobenzene and isopropyl alcohol
Method: Examples of the distyrylarylene derivative represented by general formula (1) of the present invention will be shown in the following. However, the distyrylarylene derivative of the present invention is not limited to the compounds shown as the examples. In the following, C5 means n-pentyl group. The compounds shown in the following as the examples are all dissolved into 1,2-dichloroethane at 20° C. in an amount of 0.5% by weight or more.
In the same procedures as those conducted in Example 1, 4,4″-bis(2,2-diphenylethenyl)-9′,10′-diphenylanthracene was used in place of Compound (A1) and attempted to be dissolved in organic solvents, which were toluene, xylene, N-methylpyrrolidone, γ-butyrolactone, 1,3-dimethyl-2-imidazoline, carbitol acetate, butylcarbitol acetate, dichloromethane, dichloroethane, chlorobenzene and isopropyl alcohol. However, this compound was hardly soluble in these solvents since the solubility was smaller than 0.01% by weight in all of these solvents, and no device could be prepared.

For `C(=C(c1ccccc1)c1ccccc1)c1ccc(-c2c3ccccc3c(-c3ccc(C=C(c4ccccc4)c4ccccc4)cc3)c3ccccc23)cc1` [4,4″-bis(2,2-diphenylethenyl)-9′,10′-diphenylanthracene], which solubility is on record?
Its solubility is “smaller than 0.01 % by weight”.
